Molecules are shown by their SMILES. pIC50: −log10 of the molar value. Where a name gives a salt, the structure may show the parent alone.

The target of data set [1] is CDK8/Cyclin C (Homo sapiens (Human), UniProt P49336). The data set can be described thus: LanthaScreen binding to recombinant CDK8/Cyclin C. Particulars: TR-FRET, Tracer 236 10 nM, CDK8/Cyclin C 5 nM. The procedure:
Capability of compounds of the present invention to bind to CDK8 protein was detected using LanthaScreen (ThermoFisher) assay. We detected FRET signal proportional to the amount of CDK8-bound fluorescently-labeled ligand (Tracer 236) that competes with inhibitor for ATP binding site. We carried out the measurements in a 15 μl reaction volume using a 384-well plate (Corning, #CLS4513). Enzyme CDK8/Cyclin C (ThermoFisher, #PR7261B) was mixed with antibodies Anti-His-tag-Biotin (ThermoFisher, #PV6090), Streptavidin-Eu (ThermoFisher, #PV6025), the resulting mixture was added to plate wells (5 MKπ/well). Final concentrations of substances were as follows: CDK8/Cyclin C—5 nM, Streptavidin-Eu—3 nM, Anti-His-tag-Biotin—3 nM. Staurosporine (S4400, Sigma) was used as a reference inhibitor, and 0.1% solution of dimethyl sulphoxide (DMSO) in reaction buffer was used as a blank, the reaction buffer comprised 250 mM HEPES (pH 7.5), 50 mM MgCl2, 5 mM EGTA, and 0.05% Brij-35.
The inhibitors and controls in question were added to corresponding wells (5 μl/well). The plate was incubated at room temperature for 20 minutes. After incubating, 5 μl/well of tracer solution Alexa Fluor-647 (Kinase Tracer 236, ThermoFisher, #PV5592)) was added to the wells. Final concentration of tracer was 10 nM. Reaction buffer, instead of tracer solution, was used as a negative control. The plate was incubated for 40 minutes at 25° C., TR-FRET signal was then measured according to the manufacturer's guidelines on SPARK20 plate reader (Tecan, Switzerland), and the value was converted to the amount of kinase-bound tracer. IC50 values were calculated using SparkControl Magellan 1.2 software (Tecan, Switzerland) approximating experimental points by four-parameter logistic model with the optimization by Levenberg-Marquardt (Table 5).
In general terms: Time-resolved FRET reads energy transfer from a long-lived donor to a nearby acceptor.

Data set [2] relates to KG-1 cells. The data set can be described thus: Antiproliferative activity, KG-1 cells (AlamarBlue). It counts as cell-based. Particulars: 120 h incubation. The method, then:
(§1) Antiproliferative activity of CDK8 inhibitors according to the present invention was measured in a cell-based test on continuous cell cultures MV4-11 (biphenotypic myelomonocytic leukemia, ATCC® CRL-9591™), KG-1 (acute myeloid leukemia, ATCC® CCL-246™) using a vital stain AlamarBlue (ThermoFisher, #DAL1100). The cells were grown in RPMI-1640 (PanEco, #C330p) medium with addition of 10% FBS (Gibco, #16140-071); washed and resuspended in culture medium with 10% FBS (Gibco, #16140-071) in 96-well culture plates (Corning, #3599) with ≈10×10^3 cells in […] of medium per well. The compounds in question were dissolved in DMSO and diluted with a medium with 10% FBS (Gibco, #16140-071) to a final concentration ranging from 0 to 100 μM. […] of diluted compounds were then added to each well (final DMSO concentration was less than 1%) and incubated under 5% CO2 atmosphere at 37° C. for 120 h. After incubating, 15 μL/well of AlamarBlue (ThermoFisher, #DAL1100) reagent was added, contents of plates were mixed in an orbital shaker (Biosan, Latvia) and further incubated for 3-5 h at 37° C. under 5% CO2 atmosphere. Number of living cells was estimated using a microplate spectrophotometer (Tecan Infinite M200Pro, Switzerland) measuring fluorescent signal at the excitation wavelength (λEx) of 540 nm and emission wavelength (λEm) of 590 nm.
(§2) IC50 values were calculated using Magellan 7.2 software (Tecan, Switzerland) approximating experimental points by four-parameter logistic model with the optimization by Levenberg-Marquardt (Table 6).
For orientation: Alamar Blue is a resazurin reagent that responds to reducing activity.

Data set [3] is described as follows: General cytotoxicity on HepG2 cells. It is filed as cell-based. Particulars: human, 72 h incubation. The method, then:
The CC50 values were determined in the test for General cytotoxicity On HepG2 cells (hepatocellular carcinoma, ATCC® HB-8065™). Cells per well were seeded in 96-well plates (Corning, #3599) at a concentration ≈20×10^3 cells in 100 μL of medium and incubated for 72 h with added compounds within the range of concentrations of 200 to 0.78 μM. Cell viability was assessed using the above method.

Data set [4] has as its system MV4-11 cells. The data set can be described thus: Antiproliferative activity, MV4-11 cells (AlamarBlue). It counts as cell-based. Particulars: Homo sapiens, 120 h incubation, read-out: MV-4-11 IC50. The procedure:
as §1, §2

A short description of data set [5]: Stability of the compounds in human blood plasma. It is filed as in vitro ADME. Particulars: pooled human blood plasma, 10 μM, 4 hours at 37° C. The method, then:
To assess the blood plasma stability of the compounds, we used pooled human blood plasma taken from ten healthy donors. The initial candidate solution (10 mM in DMSO) was diluted with pooled blood plasma to a concentration of 10 μm (test solution). The test solution was incubated in a dry block thermostat for 4 hours at 37° C. HPLC with Agilent 1200 liquid chromatography system (Agilent, USA) was employed to determine peak areas of the compounds in test samples, said peak areas corresponding to the initial test time (prior to incubation) and the final test time (after incubation in a dry block thermostat for 4 hours at 37° C.), proteins were preliminarily precipitated with acetonitrile. Chromatographic analysis was performed in a gradient elution regime with a flow rate of 1 mL/min Substance amount in % in a sample after thermostatting was determined.
The stability of the compounds was estimated. The compounds described herein show at least 90% chemical stability, i.e. they are chemically stable in human blood plasma (Table 2).

Data set [6] can be described thus: Permeability through Caco-2 cell monolayer. It counts as in vitro ADME. Particulars: human; for Papp A→B at 2 h, 10 μM: Caco-2, A→B, pH 6.5/7.4, 2 hour incubation; for efflux ratio at 2 h, 10 μM: Caco-2, Papp B-A/Papp A-B. The procedure: Estimation of permeability through Caco-2 cell monolayer enables assessment of the ability of the substances to penetrate through biological membranes by means of both active and passive transport.
Intestinal epithelial cells Caco-2 were grown on filter inserts (pore size 0.4 jam, BD Falcon with High Density) for 21 days; monolayer integrity was then checked using Lucifer Yellow (Sigma-Aldrich, USA) according to the standard protocol. In A→B transfer (“intestinal lumen”-“blood stream” transfer), solutions of the test substances in buffer, pH 6.5 (HBSS, 10 mM HEPES, 15 mM glucose) at a concentration of 10 μM were added to the upper chamber; whereas the lower chamber was filled with buffer, pH 7.4 (HBSS, 10 mM HEPES, 15 mM Glucose, 1% BSA). In B→A transfer (“blood stream”-“intestinal lumen” transfer), the upper chamber was filled with buffer, pH 6.5, whereas the solutions of the test substances in buffer, pH 7.4, at a concentration of 10 μM were added to the lower chamber. A highly permeable substance propranolol was used as a control.
After 2 hour incubation at 37° C. under an atmosphere containing 5% CO2, the amounts of the test substances in the upper and lower chambers were measured by HPLC using an Agilent1200 HPLC system (Agilent, USA), proteins were preliminarily precipitated with acetonitrile. Chromatographic analysis was performed in a gradient elution regime with a flow rate of 1 mL/min. The peak areas corresponding to the compounds were detected on chromatograms. Based on the peak areas of a compound in the calibration standards, concentration of the compound in the initial solution and in the samples from upper chamber wells and lower chamber wells was measured.
Cellular permeability coefficient Papp was calculated by the formula: Papp=(Ca(t)*Va)/(Cd(0)*t*Area), where Papp is the effective permeability constant, m/s V is the volume of solution (0.8 ml in A→B test, 0.2 ml in B→A test), ml Area is the membrane surface area (0.33 cm^2), cm^2 t is the time of incubation (7200 sec), sec Cd(0) is the initial solution concentration, μM Ca(t) is the concentration of the solution after 2 hours (the concentration in the sample from the well of the lower chamber in A→B test; the concentration in the sample from the well of the top chamber in B→A test), μM
The value was calculated by the following formula: efflux=Papp B-A/Papp A-B, where Pape A-B-direct A→B test permeability value Papp B-A-reverse B→A test permeability value
(In general: Passage across Caco-2 layers is used to estimate intestinal permeability.)

Chain of CDK8/Cyclin C (P49336 whole entry): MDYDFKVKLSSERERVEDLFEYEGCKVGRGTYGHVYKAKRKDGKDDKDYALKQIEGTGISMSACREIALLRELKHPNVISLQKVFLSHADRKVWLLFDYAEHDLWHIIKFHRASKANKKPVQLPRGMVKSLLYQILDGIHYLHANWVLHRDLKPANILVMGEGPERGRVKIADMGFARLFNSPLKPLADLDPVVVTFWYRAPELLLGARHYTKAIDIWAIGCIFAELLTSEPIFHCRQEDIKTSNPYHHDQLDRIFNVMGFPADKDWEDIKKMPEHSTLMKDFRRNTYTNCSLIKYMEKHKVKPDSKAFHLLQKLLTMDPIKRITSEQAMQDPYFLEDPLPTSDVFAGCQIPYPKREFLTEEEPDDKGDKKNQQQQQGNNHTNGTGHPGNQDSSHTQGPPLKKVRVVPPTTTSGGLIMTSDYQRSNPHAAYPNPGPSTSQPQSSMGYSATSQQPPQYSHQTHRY
Chain of CDK8/Cyclin C (P24863 whole entry partner): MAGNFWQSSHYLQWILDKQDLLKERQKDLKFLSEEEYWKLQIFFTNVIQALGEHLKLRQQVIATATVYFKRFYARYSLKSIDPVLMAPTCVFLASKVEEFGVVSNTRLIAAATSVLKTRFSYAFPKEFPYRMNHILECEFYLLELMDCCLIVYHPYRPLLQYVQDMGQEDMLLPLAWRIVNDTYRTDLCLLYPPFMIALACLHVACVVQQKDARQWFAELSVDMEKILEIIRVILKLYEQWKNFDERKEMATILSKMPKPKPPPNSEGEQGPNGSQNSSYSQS

A word on the pIC50: it is the negative decadic logarithm of the IC50, by convention in mol/L. As for `CN1CCN(C(=O)c2cnc3c(N)ncc(-c4ccc(-c5cnn(CC(=O)N(C)C)c5)cc4)c3c2)CC1` [Compound 3.49 × 2HCl, 2-(4-(4-(8-amino-3-(4-methylpiperazine-1-carbonyl)-1,7-naphthyridine-5-yl)phenyl)-1H-pyrazole-1-yl)-N,N-dimethylacetamide dihydrochloride], the negative-log IC50 (pIC50) was 8.79 in data set [1] and 7.80 in data set [2] (dihydrochloride).
As a reminder, the CC50 is the concentration giving 50% cytotoxicity. In the case of `COCCN(C)C(=O)c1cnc2c(N)ncc(-c3ccc(-c4cnn(CC(=O)N(C)C)c4)cc3)c2c1` [Compound 3.55], the pIC50 is 8.91 in data set [1] and 8.19 in data set [2] (Homo sapiens, KG-1, 120 h). The CC50 at 72 h in data set [3] is > 100 µM.
Take `CN1CCN(C(=O)Cn2cc(-c3ccc(-c4cnc(N)c5ncc(C(=O)N6CCN(C)CC6)cc45)cc3)cn2)CC1` [Compound 3.50, 2-(4-(4-(8-amino-3-(4-methylpiperazine-1-carbonyl)-1,7-naphthyridine-5-yl)phenyl)-1H-pyrazole-1-yl)-1-(4-methylpiperazine-1yl)ethan-1-one]: the pIC50 in data set [1] is 8.69; in data set [4] it was 8.42; in data set [2] (Homo sapiens, KG-1, 120 h), 7.58. In data set [3], the CC50 at 72 h was > 100 µM.
With `CN1CCN(C(=O)Cn2cc(-c3ccc(-c4cnc(N)c5ncc(C(=O)NCC6CC6)cc45)cc3)cn2)CC1` [Compound 3.44, 8-amino-N-(cyclopropylmethyl)-5-(4-(1-(2-(4-methylpiperazin-1-yl)-2-oxoethyl)-1H-pyrazole-4-yl)phenyl)-1,7-naphthyridine-3-carboxamide], in data set [5], the “Chemical stability in human blood plasma 4 h, %” value (from here on “Chemical stability … %”) was determined as 100.0%. Besides, the pIC50 in data set [1] is 8.85; in data set [4], 9.15; in data set [2] (Homo sapiens, KG-1, 120 h), 9.15. Besides, in data set [3], the midpoint of cytotoxicity, the CC50 at 72 h, lay at 65.3 µM.
As a reminder, the Papp A→B is the apparent permeability from the apical to the basolateral side of a cell layer. Read a high Papp A→B as ready permeation. As usually defined, the efflux ratio is the permeability from basolateral to apical divided by that in the opposite direction, in the common usage. For the compound `COCCn1cc(-c2ccc(-c3cnc(N)c4ncc(C(=O)N5CCN(C)CC5)cc34)cc2)cn1` [Compound 3.51, (8-amino-5-(4-(1-(2-methoxyethyl)-1H-pyrazole-4-yl)phenyl)-1,7-naphthyridin-3-yl)(4-methylpiperazine-1-yl)methanone], in data set [5], the “Chemical stability … %” value was 100.0%. In data set [6], this compound gave a Papp A→B at 2 h, 10 μM of 26.2 ×10⁻⁶ cm/s. Moreover, in data set [6], the efflux ratio at 2 h, 10 μM stood at 1.88. For the same compound, the pIC50 was 8.84 in data set [1]; 7.77 in data set [4]; 7.89 in data set [2] (Homo sapiens, KG-1, 120 h). For the same compound, the CC50 at 72 h in data set [3] is > 100 µM.
For the compound `CN(C)C(=O)Cn1cc(-c2ccc(-c3cnc(N)c4ncc(C(=O)NCC5CC5)cc34)cc2)cn1` [Compound 3.43, 8-Amino-N-(cyclopropylmethyl)-5-(4-(1-(2-(dimethylamino)-2-oxoethyl)-1H-pyrazole-4-yl)phenyl)-1,7-naphthyridine-3-carboxamide], the “Chemical stability … %” value in data set [5] is on record as 100.0%. Further, in data set [6], the Papp A→B at 2 h, 10 μM came out at 15.7 ×10⁻⁶ cm/s. In data set [6], the efflux ratio at 2 h, 10 μM was determined as 1.89. Also, the pIC50 is 9.06 in data set [1]; 9.30 in data set [4]; 9.70 in data set [2] (Homo sapiens, KG-1, 120 h). Also, in data set [3], half-maximal cytotoxicity (CC50 at 72 h) was put at 68.1 µM.
In the case of `COCCN(C)C(=O)c1cnc2c(N)ncc(-c3ccc(-c4cnn(CCOC)c4)cc3)c2c1` [Compound 3.57, 8-amino-N-(2-methoxyethyl)-5-(4-(1-(2-methoxyethyl)-1H-pyrazole-4-yl)phenyl)-N-methyl-1,7-naphthyridine-3-carboxamide], the pIC50 in data set [1] is 8.64; in data set [2] (Homo sapiens, KG-1, 120 h), 7.77. Also, in data set [3], the half-maximal cytotoxic concentration (CC50) at 72 h was ~90 µM.
As for `COCCN(C)C(=O)c1cnc2c(N)ncc(-c3ccc(-c4cnn(CC(=O)N5CCN(C)CC5)c4)cc3)c2c1` [Compound 3.56, 8-amino-N-(2-methoxyethyl)-N-methyl-5-(4-(1-(2-(4-methylpiperazine-1-yl)-2-oxoethyl)-1H-pyrazole-4-yl)phenyl)-1,7-naphthyridine-3-carboxamide], the pIC50 in data set [1] is 8.97; in data set [2] (Homo sapiens, KG-1, 120 h), 7.86. Further, the CC50 at 72 h in data set [3] was > 100 µM.
Consider `COCCn1cc(-c2ccc(-c3cnc(N)c4ncc(C(=O)N5CCC5)cc34)cc2)cn1` [Compound 3.54, (8-amino-5-(4-(1-(2-methoxyethyl)-1H-pyrazole-4-yl)phenyl)-1,7-naphthyridin-3-yl) (azetidin-1-yl)methanone], for which the “Chemical stability … %” value in data set [5] turned out to be 94.6%. In data set [6], the apparent permeability from apical to basolateral (Papp A→B) at 2 h, 10 μM came out at 42.8 ×10⁻⁶ cm/s. The efflux ratio at 2 h, 10 μM in data set [6] worked out at 0.55. Besides, the pIC50 is 8.90 in data set [1]; 7.80 in data set [4]; 7.91 in data set [2] (Homo sapiens, KG-1, 120 h). In data set [3], the CC50 at 72 h is ~90 µM.

For the origin of these results see patent US11840531B2, “CDK8/19 inhibitors” (JOINT STOCK COMPANY “BIOCAD”, priority 2018, dated 2023).
